Data reported in US20050288265A1, “Novel combination of glucocorticoids and pde-4 inhibitors for treating respiratory diseases, allegic diseases, asthma and copd” (priority 2002, published 2005).
pIC50: −log10 of the molar value. Read-outs that look alike come from different tables or passages of the source.

Columns and labels:
[1] = system: GM-CSF release from LPS-stimulated monocytes; test: Inhibition of GM-CSF release from LPS-stimulated monocytes; type: cell-based, human; conditions: for pIC50: Homo sapiens, Monocyte
Procedure: Inhibition of GM-CSF Release from LPS-Stimulated Monocytes EDTAized human whole blood was mixed with Hanks' buffer in the ratio 1:1. Histopaque 1077 solution (15 ml) was cautiously overlaid with max. 40 ml of the blood: Hanks' mixture and centrifuged (2000 rpm) at room temperature for 30 min. The band enriched with leukocytes was aspirated off, washed twice with Hanks' buffer and transferred into RPMI 1640 medium with Glutamax I (Gibco BRL, Eggenstein). The monocytes were removed through their adherence to the cell culture bottle over a period of two hours. The cells were then thoroughly washed with medium in order to remove non-adherent cells. […] The cells were preincubated with the stated test substances for 30 minutes. LPS was then added, and incubation was continued for a period of 24 h. The supernatants were aspirated off and investigated by ELISA. The amount of secreted human GM-CSF in the cell culture supernatants was determined by using an OptEIA™ human GM-CSF ELISA test (Pharmingen, San Diego). It was carried out in microtiter plates. Anti-human monoclonal antibodies were coupled as antibodies to the plate at 4° C. overnight. This coating and three washes were followed by saturation of nonspecific bindings by means of assay diluent solution™ (PBS with 10% FCS, pH 7.0) (Pharmingen, San Diego) at RT for 1 h. This was followed by incubation with the samples and the standard (recombinant human GM-CSF) at 4° C. overnight. […] All the steps were followed by washing 5 or 7 times with PBS/0.05% Tween 20. The enzyme activity was determined using substrate solution™ (tetramethylbenzidine (TMB) and hydrogen peroxide, Pharmingen, San Diego) as substrate at RT for 30 min. The enzyme-substrate reaction was stopped with 1M phosphoric acid, and the extinction at 450 nm was measured.

[2] = system: TNF release from LPS-stimulated monocytes; test: Inhibition of TNF release from LPS-stimulated monocytes; type: cell-based, human; conditions: for pIC50: Homo sapiens, Monocyte, substance alone, LPS-stimulated monocytes
Procedure: EDTAized human whole blood was mixed with Hanks' buffer in the ratio 1:1. Histopaque 1077 solution (15 ml) was cautiously overlaid with max. 40 ml of the blood: Hanks' mixture and centrifuged (2000 rpm) at room temperature for 30 min. The band enriched with leukocytes was aspirated off, washed twice with Hanks' buffer and transferred into RPMI 1640 medium with Glutamax I (Gibco BRL, Eggenstein). The monocytes were removed through their adherence to the cell culture bottle over a period of two hours. The cells were then thoroughly washed with medium in order to remove non-adherent cells. The resulting monocytes were cultured in RPMI 1640 medium with 10% heat-inactivated fetal calf's serum (FCS) and 100 U/ml penicillin and 100 μg/ml streptomycin in a CO2 incubator (5% CO2, 96% relative humidity, 37° C.).
Primary monocytes were seeded in 24-well plates at 5×10^5 cells/well. The cells were preincubated with the stated test substances for 30 minutes. LPS was then added, and incubation was continued for a period of 24 h. The supernatants were aspirated off and investigated by ELISA.

[3] = substance alone, LPS-stimulated primary monocytes, 24 h, read-out: IC50 for GM-CSF release from human monocytes
[4] = when 10 nM loteprednol was given simultaneously

O=C(Nc1c(Cl)cncc1Cl)C(=O)c1cn(Cc2ccc(F)cc2)c2ccc(O)cc12 [DFHO, N-(3,5-dichloropyridin-4-yl)-2-[1-(4-fluoro-benzyl)-5-hydroxyindol-3-yl]-2-oxoacetamide]
pIC50 ([1]; addition of 10 nM loteprednol, read-out: IC50 for DFHO for GM-CSF release in the presence of loteprednol): 7.22 | pIC50 [1, 3]: 5.49 | reduction in the IC50 for GM-CSF release [1, 4]: 98% | pIC50 [2]: 5.24 | reduction in the IC50 for TNF release [2, 4]: 99%

CCOC(=O)O[C@]1(C(=O)OCCl)CC[C@H]2[C@@H]3CCC4=CC(=O)C=C[C@]4(C)[C@H]3[C@@H](O)C[C@@]21C [loteprednol]
pIC50 ([1]; addition of 5 nM DFHO, read-out: IC50 for loteprednol for GM-CSF release in the presence of DFHO): 7.87 | pIC50 [1, 3]: 7.27 | reduction in the IC50 for GM-CSF release ([1]; when 5 nM DFHO was given): 75% | pIC50 [2]: 7.07 | reduction in the IC50 for TNF release ([2]; when 5 nM DFHO was given): 65%
